Paper PMC7177946, “Effect of Ferulic Acid, a Phenolic Inducer of Fungal Laccase, on 26S Proteasome Activities In Vitro” (International Journal of Molecular Sciences, 2020)

Assays:
[1] = biological target: T1, human 26S proteasome, chymotrypsin-like (CHTL) site, β5 subunit (Homo sapiens, UniProt P28074); experiment: fluorogenic peptidase assay, Suc-LLVY-AMC; type: biochemical; conditions: read-out: % inhibition at 1 mM
T1 construct: gene PSMB5; commercial purified 26S complex (BostonBiochem); beta subunits mature with N-terminal Thr; with Proteasome subunit beta type-7; Proteasome subunit beta type-6
T1 sequence (P28074 60-263): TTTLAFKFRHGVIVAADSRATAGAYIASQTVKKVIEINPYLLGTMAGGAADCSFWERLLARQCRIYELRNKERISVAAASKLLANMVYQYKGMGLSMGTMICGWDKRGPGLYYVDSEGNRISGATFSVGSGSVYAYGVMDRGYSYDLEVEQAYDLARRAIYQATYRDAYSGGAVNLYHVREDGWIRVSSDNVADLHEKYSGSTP

[2] = biological target: T2, human 26S proteasome, trypsin-like (TL) site, β2 subunit (Homo sapiens, UniProt Q99436); experiment: fluorogenic peptidase assay, Z-GGR-AMC; type: biochemical; conditions: read-out: % inhibition at 1 mM
T2 construct: gene PSMB7; commercial purified 26S complex (BostonBiochem); beta subunits mature with N-terminal Thr; with Proteasome subunit beta type-5; Proteasome subunit beta type-6
T2 sequence (Q99436 44-277): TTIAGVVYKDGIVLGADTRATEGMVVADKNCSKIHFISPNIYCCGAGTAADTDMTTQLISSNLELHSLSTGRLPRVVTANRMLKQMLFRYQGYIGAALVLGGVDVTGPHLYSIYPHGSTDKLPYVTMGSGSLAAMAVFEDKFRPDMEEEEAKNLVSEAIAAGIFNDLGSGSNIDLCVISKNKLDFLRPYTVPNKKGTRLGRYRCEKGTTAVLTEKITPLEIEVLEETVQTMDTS

COc1cc(/C=C/C(=O)O)ccc1O [ferulic acid, 4-hydroxy-3-methoxycinnamic acid]
inhibition at 1000 µM [1]: 31%
inhibition at 1000 µM [2]: 30%
